This note sets out measurements from US7960131B2, “Functional genomic pore assay for mixed cell populations” (Wisconsin Alumni Research Foundation, priority 2003, dated 2011).

The target in the experiment is T1, P2X7-E496A (Homo sapiens, UniProt Q99572, E496A).
T1 construct: expressed in transfected cells
T1 sequence (Q99572 1-595 E496A): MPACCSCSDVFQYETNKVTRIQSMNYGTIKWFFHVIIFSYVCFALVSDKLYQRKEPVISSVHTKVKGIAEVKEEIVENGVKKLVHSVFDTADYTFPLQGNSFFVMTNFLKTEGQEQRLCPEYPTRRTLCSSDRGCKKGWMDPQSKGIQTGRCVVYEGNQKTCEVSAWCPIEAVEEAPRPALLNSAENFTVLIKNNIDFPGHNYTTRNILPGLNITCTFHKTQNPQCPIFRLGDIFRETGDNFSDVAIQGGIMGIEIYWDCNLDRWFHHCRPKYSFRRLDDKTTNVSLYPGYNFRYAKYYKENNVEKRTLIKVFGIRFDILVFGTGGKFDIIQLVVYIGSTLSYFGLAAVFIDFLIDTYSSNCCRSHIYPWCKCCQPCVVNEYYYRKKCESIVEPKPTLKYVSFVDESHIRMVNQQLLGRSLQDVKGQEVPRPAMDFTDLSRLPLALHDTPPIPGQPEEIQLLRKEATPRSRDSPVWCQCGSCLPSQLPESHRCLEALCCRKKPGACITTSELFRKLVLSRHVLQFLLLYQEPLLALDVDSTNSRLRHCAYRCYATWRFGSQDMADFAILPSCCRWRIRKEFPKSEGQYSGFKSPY
As to the kind of experiment: YO-PRO-1 uptake fluorimetric plate assay in transfected HEK 293 cells, P2X7-E496A. In kind it is cell-based. As to conditions: E496A variant. An excerpt:
Recombinant Expression and Functional Characterization of Variant P2RX7 Alleles. A pcDNA3 expression vector containing a cloned human P2RX7 cDNA associated with normal pore activity was subjected to point mutagenesis using the Quick Change Kit (Stratagene Inc., city, state) to create the variants P2X7-G150R, P2X7-Q460R, and P2X7-E496A. HEK 293 cells were transfected by the Superfect liposomal method and stable populations were selected by G418 resistance. Expression of P2X7 mRNA and protein in unstimulated transfected HEK cell cultures was verified by RT-PCR and immunoblotting as previously described.
YO-PRO-1 fluorescence was measured by a Synergy-HT fluorescent plate reader (Biotek, city, state) using X±Y nm excitation and A±B emission filters.

As to “2′-3′-O-(4-benzoylbenzoyl)-adenosine 5′-triphosphate [Bz-ATP]”, the “increase in YO-PRO-1 fluorescence” value (potassium glutamate buffer) was “approximately half-maximal increase”. The agonist-inducible pore activity entry (saline-containing buffers) is reported as “lacking agonist-inducible pore activity”.
